Values quoted from earlier work as cited in patent US5434174A, “Isoxazole derivatives for the treatment of irritable bowel syndrome” (priority 1993, dated 1995).

Conditions: IBS therapy; cited from earlier work

## CCN(CC)CCOC(=O)C1(C2CCCCC2)CCCCC1 [Bentyl]
  side effects: serious side effects
